Reference: ChEMBL document CHEMBL5050844 (2019)

Legend:
B cell = assay: Induction of anti-IgM-stimulated human CD20+ B cell activation at 10 to 1000 uM assessed as increase in CD69 expression measured as mean fluorescence intensity AUC by flow cytometry analysis; type: functional, cell-based; settings: dose 10-1000 µM
[1] = Induction of anti-CD3/CD28 antibodies-stimulated human T cell activation at 1.11 uM assessed fold increase in IFN-gamma secretion measured by ELISA assay; type: functional, T cell line
[2] = Induction of activation of human CD56+ CD3- NK cells co-cultured with human K562 cells in 1:1 ratio and assessed as increase in TNF-alpha secretion at 2.5 uM measured by ELISA assay; type: functional, Natural killer cell
[3] = Induction of anti-CD3/CD28 antibodies-stimulated human T cell activation at 4 uM assessed fold increase in CD25 expression measured by ELISA assay; type: functional, T cell line
[4] = Induction of anti-CD3 antibodies-stimulated human T cell activation at 10 uM assessed fold increase in GM-CSF secretion measured by ELISA assay; type: functional, T cell line
[5] = Induction of anti-CD3 antibodies-stimulated human T cell activation at 1 uM assessed fold increase in IL-2 secretion measured by ELISA assay; type: functional, T cell line
[6] = Induction of anti-CD3 antibodies-stimulated human T cell activation at 1 uM assessed fold increase in CD25 expression measured by ELISA assay; type: functional, T cell line
[7] = Induction of anti-CD3 antibodies-stimulated human CD8+ T cell activation at 10 uM assessed fold increase in CD69 expression measured by flow cytometry analysis; type: functional, T cell line
[8] = Induction of activation of human CD56+ CD3- NK cells co-cultured with human K562 cells in 1:1 ratio and assessed as increase in IFN-gamma secretion at 0.625 uM measured by ELISA assay; type: functional, Natural killer cell
[9] = Induction of anti-CD3 antibodies-stimulated human exhausted T cell activation assessed fold increase in IL-2 secretion measured by ELISA assay; type: functional, T cell line
[10] = Induction of activation of human CD56+ CD3- NK cells co-cultured with human K562 cells in 1:1 ratio and assessed as increase in TNF-alpha secretion at 0.625 uM measured by ELISA assay; type: functional, Natural killer cell
[11] = Induction of anti-CD3 antibodies-stimulated human exhausted T cell activation assessed fold increase in GM-CSF secretion measured by ELISA assay; type: functional, T cell line
[12] = Induction of anti-CD3/CD28 antibodies-stimulated human T cell activation at 1 uM assessed fold increase in IL-2 secretion measured by ELISA assay; type: functional, T cell line
[13] = Induction of anti-CD3 antibodies-stimulated human exhausted CD8+ T cell activation assessed fold increase in CTLA4 expression measured by flow cytometry analysis; type: functional, T cell line
[14] = Induction of anti-CD3/CD28 antibodies-stimulated human CD8+ T cell activation at 1.11 uM assessed fold increase in cell proliferation measured by flow cytometry analysis; type: functional, T cell line
[15] = Induction of anti-CD3/CD28 antibodies-stimulated human T cell activation at 4 uM assessed fold increase in IL-2 secretion measured by ELISA assay; type: functional, T cell line
[16] = Induction of activation of human CD56+ CD3- NK cells co-cultured with human K562 cells in 1:1 ratio and assessed as increase in IFN-gamma secretion at 10 uM measured by ELISA assay; type: functional, Natural killer cell
[17] = Induction of anti-CD3/CD28 antibodies-stimulated human T cell activation at 10 uM assessed fold increase in TNF-alpha secretion measured by ELISA assay; type: functional, T cell line
[18] = Induction of activation of human CD56+ CD3- NK cells co-cultured with human K562 cells in 1:1 ratio and assessed as increase in IFN-gamma secretion at 2.5 uM measured by ELISA assay; type: functional, Natural killer cell
[19] = Induction of anti-CD3 antibodies-stimulated human CD4+ T cell activation at 1.11 uM assessed fold increase in CD69 expression measured by flow cytometry analysis; type: functional, T cell line
[20] = Induction of anti-CD3 antibodies-stimulated human T cell activation at 1.11 uM assessed fold increase in GM-CSF secretion measured by ELISA assay; type: functional, T cell line
[21] = Induction of anti-CD3 antibodies-stimulated human CD4+ T cell activation at 10 uM assessed fold increase in CD69 expression measured by flow cytometry analysis; type: functional, T cell line
[22] = Induction of anti-CD3 antibodies-stimulated human T cell activation at 8 uM assessed fold increase in IL-2 secretion measured by ELISA assay; type: functional, T cell line
[23] = Induction of anti-CD3/CD28 antibodies-stimulated human CD4+ T cell activation at 1.11 uM assessed fold increase in cell proliferation measured by flow cytometry analysis; type: functional, T cell line
[24] = Induction of anti-CD3/CD28 antibodies-stimulated human T cell activation at 1.11 uM assessed fold increase in GM-CSF secretion measured by ELISA assay; type: functional, T cell line
[25] = Induction of anti-CD3/CD28 antibodies-stimulated human anergic T cell activation at 0.37 uM assessed fold increase in IFN-gamma secretion measured by ELISA assay; type: functional, T cell line
[26] = Induction of anti-CD3 antibodies-stimulated human CD8+ T cell activation at 1.11 uM assessed fold increase in cell proliferation measured by flow cytometry analysis; type: functional, T cell line
[27] = Induction of anti-CD3/CD28 antibodies-stimulated human CD8+ T cell activation at 10 uM assessed fold increase in CD69 expression measured by flow cytometry analysis; type: functional, T cell line
[28] = Induction of anti-CD3/CD28 antibodies-stimulated human T cell activation at 0.3 uM assessed fold increase in CD25 expression measured by ELISA assay; type: functional, T cell line
[29] = Induction of anti-CD3 antibodies-stimulated human T cell activation at 10 uM assessed fold increase in IFN-gamma secretion measured by ELISA assay; type: functional, T cell line
[30] = Induction of anti-CD3 antibodies-stimulated human exhausted CD4+ T cell activation assessed fold increase in CTLA4 expression measured by flow cytometry analysis; type: functional, T cell line
[31] = Induction of anti-CD3/CD28 antibodies-stimulated human anergic T cell activation at 1.11 uM assessed fold increase in IFN-gamma secretion measured by ELISA assay; type: functional, T cell line
[32] = Induction of anti-CD3/CD28 antibodies-stimulated human CD4+ T cell activation at 10 uM assessed fold increase in cell proliferation measured by flow cytometry analysis; type: functional, T cell line
[33] = Induction of anti-CD3/CD28 antibodies-stimulated human CD8+ T cell activation at 10 uM assessed fold increase in cell proliferation measured by flow cytometry analysis; type: functional, T cell line
[34] = Induction of anti-CD3/CD28 antibodies-stimulated human CD8+ T cell activation at 1.11 uM assessed fold increase in CD69 expression measured by flow cytometry analysis; type: functional, T cell line
[35] = Induction of anti-CD3 antibodies-stimulated human CD8+ T cell activation at 1.11 uM assessed fold increase in CD69 expression measured by flow cytometry analysis; type: functional, T cell line
[36] = Induction of anti-CD3/CD28 antibodies-stimulated human T cell activation at 1.11 uM assessed fold increase in TNF-alpha secretion measured by ELISA assay; type: functional, T cell line
[37] = Induction of anti-CD3 antibodies-stimulated human CD8+ T cell activation at 10 uM assessed fold increase in cell proliferation measured by flow cytometry analysis; type: functional, T cell line

| SMILES | AUC (B cell) | fold change (FC) [1] | fold change (FC) [2] | fold change (FC) [3] | fold change (FC) [4] | fold change (FC) [5] | fold change (FC) [6] | fold change (FC) [7] | fold change (FC) [8] | fold change (FC) [9] | fold change (FC) [10] | fold change (FC) [11] | fold change (FC) [12] | fold change (FC) [13] | fold change (FC) [14] | fold change (FC) [15] | fold change (FC) [16] | fold change (FC) [17] | fold change (FC) [18] | fold change (FC) [19] | other results |
| --- | --- | --- | --- | --- | --- | --- | --- | --- | --- | --- | --- | --- | --- | --- | --- | --- | --- | --- | --- | --- | --- |
| Cn1cnnc1[C@@H]1C[C@@H]1c1cccc(N2Cc3c(ccnc3C(F)(F)F)C2=O)c1 | 1.01 | <=2 | <=1 | 1.01 | <=1.5 | 0.051 | 0.601 | <=1.2 | 1.01 | <=2.5 | <=1 | <=1.4 | 1.01 | <=1.4 | <=2 | 1.01 | 2.01 | 2.01 | <=1 | <=1.2 | fold change (FC) [20]: <=1.5; fold change (FC) [21]: <=1.2; fold change (FC) [22]: 0.101; fold change (FC) [23]: <=2; fold change (FC) [24]: <=1.5; fold change (FC) [25]: <=2.5; fold change (FC) [26]: <=2; fold change (FC) [27]: 1.201; fold change (FC) [28]: 1.01; fold change (FC) [29]: <=2; fold change (FC) [30]: <=1.4; fold change (FC) [31]: <=2.5; fold change (FC) [32]: >4; fold change (FC) [33]: 2.01; fold change (FC) [34]: <=1.2; fold change (FC) [35]: <=1.2; fold change (FC) [36]: <=1.5; fold change (FC) [37]: <=2 |
| C[C@H](Cc1nncn1C)c1cccc(NC(=O)c2cc3cc(N4CCNCC4)ccc3cn2)c1.Cl | 1.01 | <=2 | <=1 | 1.01 | 1.51 | 0.101 | 0.801 | 1.201 | 1.01 | <=2.5 | <=1 | <=1.4 | 1.01 | 1.41 | 2.01 | 2.51 | 2.01 | 1.51 | <=1 | 1.401 | fold change (FC) [20]: 1.51; fold change (FC) [21]: 1.401; fold change (FC) [22]: 0.101; fold change (FC) [23]: 3.01; fold change (FC) [24]: 1.51; fold change (FC) [25]: <=2.5; fold change (FC) [26]: 2.01; fold change (FC) [27]: 1.201; fold change (FC) [28]: 1.01; fold change (FC) [29]: <=2; fold change (FC) [30]: 1.41; fold change (FC) [31]: <=2.5; fold change (FC) [32]: >4; fold change (FC) [33]: 2.01; fold change (FC) [34]: <=1.2; fold change (FC) [35]: <=1.2; fold change (FC) [36]: 1.51; fold change (FC) [37]: <=2 |
| C[C@H](Sc1nncn1C)c1cccc(NC(=O)c2cc(C(=O)N3CC[C@H](O)C3)ccn2)c1 | < 0.5 | 2.01 | <=1 | 1.01 | 2.01 | <=0.05 | 0.601 | 1.401 | <=1 | <=2.5 | <=1 | <=1.4 | <=1 | <=1.4 | >4 | <=1 | 1.01 | 2.01 | <=1 | >1.601 | fold change (FC) [20]: 2.01; fold change (FC) [21]: >1.601; fold change (FC) [22]: <=0.05; fold change (FC) [23]: >4; fold change (FC) [24]: 2.01; fold change (FC) [25]: <=2.5; fold change (FC) [26]: >4; fold change (FC) [27]: 1.201; fold change (FC) [28]: 1.01; fold change (FC) [29]: >4; fold change (FC) [30]: <=1.4; fold change (FC) [31]: <=2.5; fold change (FC) [32]: >4; fold change (FC) [33]: >4; fold change (FC) [34]: 1.201; fold change (FC) [35]: 1.401; fold change (FC) [36]: 2.01; fold change (FC) [37]: >4 |
| Cn1cnnc1CC1(c2cccc(N3Cc4c(cc(CN5CC[C@H](C#N)C5)cc4C(F)(F)F)C3=O)c2)COC1 | 1.01 | 3.01 | 1.01 | 1.31 | 2.01 | >=0.201 | >=1.001 | 1.201 | 2.01 | <=2.5 | 1.01 | 1.41 | >=7.5 | >1.61 | 2.01 | >=7.5 | 2.01 | 2.01 | 1.01 | 1.401 | fold change (FC) [20]: 2.01; fold change (FC) [21]: >1.601; fold change (FC) [22]: >=0.201; fold change (FC) [23]: >4; fold change (FC) [24]: 2.01; fold change (FC) [25]: <=2.5; fold change (FC) [26]: 3.01; fold change (FC) [27]: 1.201; fold change (FC) [28]: 1.31; fold change (FC) [29]: 3.01; fold change (FC) [30]: >1.61; fold change (FC) [31]: 2.51; fold change (FC) [32]: >4; fold change (FC) [33]: 3.01; fold change (FC) [34]: 1.201; fold change (FC) [35]: <=1.2; fold change (FC) [36]: 2.01; fold change (FC) [37]: >4 |
